One assay deals with T1, IRAK4 (Homo sapiens, UniProt Q9NWZ3).
T1 construct: host or cells: human PBMCs
T1 sequence (Q9NWZ3 1-460): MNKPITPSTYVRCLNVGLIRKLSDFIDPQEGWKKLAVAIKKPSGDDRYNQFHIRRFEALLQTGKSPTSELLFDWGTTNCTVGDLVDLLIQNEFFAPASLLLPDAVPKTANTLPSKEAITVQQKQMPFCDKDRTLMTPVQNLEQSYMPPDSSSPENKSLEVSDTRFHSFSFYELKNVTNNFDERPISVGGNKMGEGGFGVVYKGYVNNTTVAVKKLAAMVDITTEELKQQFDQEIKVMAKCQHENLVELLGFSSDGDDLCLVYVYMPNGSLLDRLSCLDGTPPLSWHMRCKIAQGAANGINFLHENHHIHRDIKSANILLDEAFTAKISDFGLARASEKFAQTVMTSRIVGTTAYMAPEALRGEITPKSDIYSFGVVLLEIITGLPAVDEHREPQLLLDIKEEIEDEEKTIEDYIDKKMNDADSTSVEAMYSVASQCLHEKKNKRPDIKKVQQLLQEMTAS
Kind of assay: IRAK4 Human PBMC TNFα Cell Based Assay (AlphaLISA). The note with it: TNFα in culture medium. On the procedure: In this assay, serially diluted compounds were incubated with 1×10^4 human peripheral blood mononuclear cells (PBMCs) from STEMCELL (Cat #70025.1) per well of 384-well plate (Fisher Scientific; 50-905-2761) and cultured with TexMACS medium (Miltenyi, Cat #130-097-196), stimulated by R848 (0.5 μM) or IL-1β (10 ng/ml). Plates were covered with lids and incubated for 4 h (R848, Fisher Scientific, Cat #NC9801605) or 24 h (IL-1β, Fisher Scientific, Cat #ENRIL1BI) at 37° C. in a humidified tissue-culture incubator. After a brief centrifugation at 1000 rpm for 5 minutes, 5 μl of culture medium was used for the measurement of the TNFα amount using TNFα (human) AlphaLISA Detection Kit (PerkinElmer, Cat #AL208C) according to manufacturer's protocol. A biotinylated anti-TNFα antibody binds to the Streptavidin-coated Donor beads while another anti-TNFα antibody is conjugated to AlphaLISA Acceptor beads. In the presence of the TNFα, the beads come into close proximity. The excitation of the Donor beads causes the release of singlet oxygen molecules that triggers a cascade of energy transfer in the Acceptor beads, resulting in a sharp peak of light emission at 615 nm. AlphaLISA assay plates were read using PHERAstar. Percentage of inhibition was calculated as below:
(§1) % inhibition=(1−(Reading(Sample)−Reading(Negative Control))/(Reading(Positive Control)−Reading(Negative Control)))×100%
The 0% inhibition value comes from the Reading of Positive Control wells having 0 nM compound. The 100% inhibition value comes from the Reading of Negative Control wells having no R848 or IL-1β.

For assay [1], the target named is T2, full length human IRAK4 protein (Homo sapiens, UniProt Q9NWZ3).
T2 construct: Purified full length human IRAK4 protein; purchased Signal Chem 112-10G-125
T2 sequence (Q9NWZ3 1-460): T1 sequence (Q9NWZ3 1-460)
Nature of the assay: IRAK4 Biochemical Assay (Promega ADP-Glo IRAK4 Kinase Enzyme System). The note with it: 3 nM enzyme, 2 μM MBP, 250 μM ATP, 60 min at room temperature, ADP-Glo luminescence. As to the method: For the routine compound screening, an IRAK4 kinase assay was performed as follows using Promega ADP-Glo IRAK4 Kinase Enzyme System (Promega, Cat #2198-AD). Purified full length human IRAK4 protein (Signal Chem; Cat #112-10G-125) was diluted to a concentration 6 nM in assay buffer (25 mM MOPS, pH 7.2, 12.5 mM β-glycerol-phosphate, 25 mM MgCl2, 5 mM EGTA, 2 mM EDTA, 0.0025% Brij-35, add 0.25 mM DTT to Kinase Assay Buffer prior to use) containing IRAK4 inhibitor at 2× the final concentration in 0.4% DMSO. The reaction was performed in PerkinElmer Proxiplate-384 plus white plate (Fisher Scientific, Cat #50-905-2761) and started by the addition of an equal volume of the assay buffer containing 4 μM native swine myelin basic protein (MBP) and 500 μM ATP to achieve a final concentration of 3 nM enzyme, 2 μM MBP, 250 μM ATP, 1× compound, and 0.2% DMSO. The kinase reaction was allowed to run for 60 min at room temperature (25-27° C.), then 5 μL of ADP-Glo was added to the reaction in each well followed by 40 minutes-incubation at RT. To detect converted ATP, 10 μL Detection Buffer was added into each well and Incubate at RT in dark for 30 minutes. Finally, luminescence was read using Tecan with 1000 ms of integration time. The luminescent signal positively correlates with ADP amount and kinase activity. Data was analyzed by GraphPad Prism and IC50 was calculated using function log(inhibitor) vs. response—Variable slope (four parameters). Percentage of inhibition was calculated as below.
as §1
The 0% inhibition value comes from the Reading of Positive Control wells having 0 nM compound. The 100% inhibition value comes from the Reading of Negative Control wells having no IRAK4 kinase.
In general terms: ADP-Glo turns the ADP formed in a reaction into a luminescent signal.

Setting [2] is: human PBMCs stimulated by IL-1β (10 ng/ml), 24 h, read-out: IRAK4 PBMC AlphaLISA IL-1β (IC50).
Where [3] appears, read: human PBMCs stimulated by R848 (0.5 μM), 4 h, read-out: IRAK4 PBMC AlphaLISA R848 (IC50).

Five compounds from US20220144842A1, “IRAK INHIBITORS, PREPARATION METHOD AND MEDICINAL USES THEREOF” (Eternity Bioscience Inc., priority 2020, published 2022) can be followed below.

pIC50: −log10 of the molar value. Where two headings read alike, the source gives them in different places.

In general, pIC50 refers to −log10 of the IC50, conventionally taken in molar units. In the case of `Brc1n[nH]c2nc(Nc3cnn(C4CCOCC4)c3)nc(N[C@H]3CC[C@H](N4CCOCC4)CC3)c12` [Example 1, 3-bromo-N^4-((1r,4r)-4-morpholinocyclohexyl)-N^6-(1-(tetrahydro-2H-pyran-4-yl)-1H-pyrazol-4-yl)-1H-pyrazolo[3,4-d]pyrimidine-4,6-diamine], the pIC50 at IRAK4 (setting [2]) is 7.80; at IRAK4 (setting [3]), 7.46; in assay [1], 8.38. In assay [1], the “IRAK4 Biochemical Assay Max Inhibition (%)” value amounted to 100%.

In the case of `c1nn(C2CCOCC2)cc1Nc1nc(N[C@H]2CC[C@H](N3CCOCC3)CC2)c2c(-c3cn[nH]c3)n[nH]c2n1` [Example 3, N^4-((1r,4r)-4-morpholinocyclohexyl)-3-(1H-pyrazol-4-yl)-N^6-(1-(tetrahydro-2H-pyran-4-yl)-1H-pyrazol-4-yl)-1H-pyrazolo[3,4-d]pyrimidine-4,6-diamine], in assay [1], the pIC50 is 7.92 and the “IRAK4 Biochemical Assay Max Inhibition (%)” value is listed as 109%.

In the case of `c1cncc(-c2n[nH]c3nc(Nc4cnn(C5CCOCC5)c4)nc(N[C@H]4CC[C@H](N5CCOCC5)CC4)c23)c1` [Example 2, N^4-((1r,4r)-4-morpholinocyclohexyl)-3-(pyridin-3-yl)-N^6-(1-(tetrahydro-2H-pyran-4-yl)-1H-pyrazol-4-yl)-1H-pyrazolo[3,4-d]pyrimidine-4,6-diamine], the figures for the pIC50 (on IRAK4 (setting [2]); at IRAK4 (setting [3]); in assay [1]) were 7.60, 7.62 and 8.09, respectively. Besides, the “IRAK4 Biochemical Assay Max Inhibition (%)” value in assay [1] is 100%.

For `c1ccc(-c2n[nH]c3nc(Nc4cnn(C5CCOCC5)c4)nc(N[C@H]4CC[C@H](N5CCOCC5)CC4)c23)cc1` [Example 5, N^4-((1r,4r)-4-morpholinocyclohexyl)-3-phenyl-N^6-(1-(tetrahydro-2H-pyran-4-yl)-1H-pyrazol-4-yl)-1H-pyrazolo[3,4-d]pyrimidine-4,6-diamine], the figures for the pIC50 (at IRAK4 (setting [2]); on IRAK4 (setting [3]); in assay [1]) were 7.25, 7.20 and 7.80, respectively. Further, the “IRAK4 Biochemical Assay Max Inhibition (%)” value in assay [1] came out at 100%.

Turning to `Cc1cc(Nc2nc(N[C@H]3CC[C@H](N4CCOCC4)CC3)c3cn[nH]c3n2)sn1` [Example 6, N^6-(3-methylisothiazol-5-yl)-N^4-((1r,4r)-4-morpholinocyclohexyl)-1H-pyrazolo[3,4-d]pyrimidine-4,6-diamine], the pIC50 on IRAK4 (setting [2]) was 9.05; on IRAK4 (setting [3]), 8.80; in assay [1], 7.92. In addition, in assay [1], the “IRAK4 Biochemical Assay Max Inhibition (%)” value turned out to be 100%.
